We go through three molecules from PMC6271077, “Synthesis, Anticancer and Antibacterial Activity of Salinomycin N-Benzyl Amides” (Molecules, 2014).

SMILES strings stand for the structures. In brackets after ≈: the same amount, converted by molar mass. Where two headings read alike, the source gives them in different places.

The test system of experiment [1] is LoVo. The experiment is described as follows: Antiproliferative SRB assay, LoVo. The experiment is classed as cell-based, human. Particulars: for IC50: Homo sapiens, LoVo, 72 h, read-out: IC50 LoVo; for SI LoVo: SI = IC50 BALB/3T3 / IC50 LoVo. (In general: The SRB assay estimates cell density from bound dye.)
For experiment [2], the system named is S. aureus ATCC 4163. The experiment is described as follows: MIC microdilution. The experiment is classed as cell-based. Conditions: Staphylococcus aureus. Background: Dilution methods test growth across graded concentrations, often in twofold steps.
For experiment [3], the system named is S. aureus ATCC 6538. Description: MIC microdilution. The experiment is classed as cell-based. Conditions: Staphylococcus aureus.
Experiment [4] relates to S. aureus ATCC 6538. The experiment is described as follows: Disc-diffusion (GIZ). Type of experiment: cell-based. Particulars: 18 h, 35 °C, un: unmeasurable. The source says:
(§1) Microorganisms used in this study were as follows: Gram-positive cocci: S. aureus NCTC 4163, S. aureus ATCC 25923, S. aureus ATCC 6538, S. aureus ATCC 29213, S. epidermidis ATCC 12228, S. epidermidis ATCC 35984, Gram-negative rods: E. coli ATCC 10538, E. coli ATCC 25922, E. coli NCTC 8196, P. vulgaris NCTC 4635, P. aeruginosa ATCC 15442, P. aeruginosa NCTC 6749, P. aeruginosa ATCC 27863, B. bronchiseptica ATCC 4617 and yeasts: C. albicans ATCC 10231, C. albicans ATCC 90028, C. parapsilosis ATCC 22019. The other microorganisms used were obtained from the collection of the Department of Pharmaceutical Microbiology, Medical University of Warsaw, Poland.
(§2) Antibacterial activity was examined by the disc-diffusion method under standard conditions using Mueller-Hinton II agar medium (Becton Dickinson, Heidelberg, Germany) according to CLSI (previously NCCLS) guidelines. Antifungal activities were assessed using Muellere Hinton agar + 2% glucose and 0.5 mg/mL Methylene Blue Dye Medium.
(§3) Sterile filter paper discs (9 mm diameter, Whatman No. 3 chromatography paper) were dripped with tested compound solutions (in EtOH) to load […] of a given compound per disc. Dry discs were placed on the surface of appropriate agar medium. The results (diameter of the growth inhibition zone, GIZ) were read after 18 h of incubation at 35 °C.
(In general: Agar diffusion results depend on both activity and mobility in agar.)

Experiment [5] deals with S. aureus ATCC 4163. The experiment is described as follows: Disc-diffusion (GIZ). Particulars: 18 h, 35 °C, un: unmeasurable. The experiment is classed as cell-based.
Excerpt: as §1, §2, §3

Experiment [6] concerns S. aureus ATCC 25923. The experiment is described as follows: Disc-diffusion (GIZ). Type of experiment: cell-based. Particulars: 18 h, 35 °C, un: unmeasurable.
Excerpt: as §1, §2, §3

Experiment [7] concerns S. epidermidis ATCC 35984. The experiment is described as follows: Disc-diffusion (GIZ). Particulars: 18 h, 35 °C, un: unmeasurable. The experiment is classed as cell-based.
Excerpt: as §1, §2, §3

Experiment [8] deals with S. aureus ATCC 29213. The experiment is described as follows: Disc-diffusion (GIZ). Particulars: 18 h, 35 °C, un: unmeasurable. The experiment is classed as cell-based.
Excerpt: as §1, §2, §3

The test system of experiment [9] is S. epidermidis ATCC 12228. The experiment is described as follows: Disc-diffusion (GIZ). Type of experiment: cell-based. Conditions: 18 h, 35 °C, un: unmeasurable.
Excerpt: as §1, §2, §3

Experiment [10] concerns MRSA 572/12. The experiment is described as follows: MIC microdilution, hospital MRSA. Conditions: Staphylococcus aureus. Type of experiment: cell-based.
For experiment [11], the system named is MRSE 469/11. The experiment is described as follows: MIC microdilution, hospital MRSE. Conditions: Staphylococcus epidermidis. Type of experiment: cell-based.
Experiment [12] deals with MRSA 514/11. The experiment is described as follows: MIC microdilution, hospital MRSA. The experiment is classed as cell-based. Particulars: Staphylococcus aureus.
Experiment [13] relates to MRSA 522/12. Description: MIC microdilution, hospital MRSA. Type of experiment: cell-based. Conditions: Staphylococcus aureus.
The subject of experiment [14] is MRSE 470/11. Description: MIC microdilution, hospital MRSE. The experiment is classed as cell-based. Conditions: Staphylococcus epidermidis.
Experiment [15] has as its system MRSE 467/11. The experiment is described as follows: MIC microdilution, hospital MRSE. The experiment is classed as cell-based. Conditions: Staphylococcus epidermidis.
Setting [16] is: ATCC4163, S. aureus ATCC 4163, 18 h, 35 °C, read-out: MIC.
Setting [17] is: ATCC6538, S. aureus ATCC 6538, 18 h, 35 °C, read-out: MIC.
Where [18] appears, read: hospital MRSA strain 572/12, read-out: MIC.
Where [19] appears, read: hospital MRSE strain 469/11, read-out: MIC.
[20] abbreviates: hospital MRSA strain 514/11, read-out: MIC.
Setting [21] is: hospital MRSA strain 522/12, read-out: MIC.
The mark [22] stands for this setting: hospital MRSE strain 470/11, read-out: MIC.
The mark [23] stands for this setting: hospital MRSE strain 467/11, read-out: MIC.

Take `CC[C@H](C(=O)NCc1ccc(F)cc1)C1CC[C@H](C)C([C@@H](C)[C@H](O)[C@H](C)C(=O)[C@H](CC)C2O[C@]3(C=C[C@@H](O)C4(CC[C@@](C)(C5CC[C@](O)(CC)[C@H](C)O5)O4)O3)[C@H](C)C[C@@H]2C)O1` (stereo partly drawn) [F-p]: the IC50 in [1] (SRB, mean ± SD) came out at 6.18 ± 0.91 µM. In addition, the “SI LoVo” value in experiment [1] was found to be 1.40. Besides, the MIC was determined as 32 µg/mL (≈ 37.3 µM) in experiment [2] (setting [16]); 16 µg/mL (≈ 18.6 µM) in [3] (setting [17]); 32 µg/mL (≈ 37.3 µM) in experiment [10] (setting [18]); 64 µg/mL (≈ 74.6 µM) in experiment [11] (setting [19]); 32 µg/mL (≈ 37.3 µM) in experiment [12] (setting [20]); 32 µg/mL (≈ 37.3 µM) in experiment [13] (setting [21]). Moreover, the MIC is 32 µg/mL (≈ 37.3 µM) in experiment [14] (setting [22]) and 64 µg/mL (≈ 74.6 µM) in experiment [15] (setting [23]). The GIZ is on record as 19 mm in experiment [4]; 18 mm in experiment [5]; 19 mm in experiment [6]; 18 mm in experiment [7]; 20 mm in [8]; 20 mm in [9].
Turning to `CC[C@H](C(=O)NCc1ccc([N+](=O)[O-])cc1)C1CC[C@H](C)C([C@@H](C)[C@H](O)[C@H](C)C(=O)[C@H](CC)C2O[C@]3(C=C[C@@H](O)C4(CC[C@@](C)(C5CC[C@](O)(CC)[C@H](C)O5)O4)O3)[C@H](C)C[C@@H]2C)O1` (stereo partly drawn) [NO2-p], in [1] (SRB, mean ± SD), the IC50 was 13.3 ± 1.94 µM. Besides, the “SI LoVo” value in experiment [1] came to 0.52. The minimal inhibitory concentration (MIC) is 128 µg/mL (≈ 145 µM) in experiment [2] (setting [16]); 128 µg/mL (≈ 145 µM) in [3] (setting [17]); 128 µg/mL (≈ 145 µM) in experiment [10] (setting [18]); 256 µg/mL (≈ 289 µM) in experiment [11] (setting [19]); 128 µg/mL (≈ 145 µM) in experiment [12] (setting [20]); 128 µg/mL (≈ 145 µM) in [13] (setting [21]). Also, the values for the minimal inhibitory concentration (MIC) in experiment [14] (setting [22]) and in experiment [15] (setting [23]) were 256 µg/mL (≈ 289 µM) and 128 µg/mL (≈ 145 µM), respectively. Moreover, the GIZ result in experiment [4], in [5], in experiment [6], in [7], in [8] and in experiment [9] was “un” in each case.
For the molecule `CC[C@@H](C(=O)[C@@H](C)[C@@H](O)[C@H](C)[C@@H]1O[C@@H]([C@@H](CC)C(=O)O)CC[C@@H]1C)[C@H]1O[C@]2(C=C[C@@H](O)[C@]3(CC[C@@](C)([C@H]4CC[C@](O)(CC)[C@H](C)O4)O3)O2)[C@H](C)C[C@@H]1C` [SAL, Salinomycin], the half-inhibitory concentration (IC50) in experiment [1] turned out to be 0.47 ± 0.08 µM. Also, in [1], the “SI LoVo” value was found to be 27.70. In addition, the MIC is 2 µg/mL (≈ 2.66 µM) in experiment [2] (ATCC4163, 18 h); 2 µg/mL (≈ 2.66 µM) in experiment [3] (ATCC6538, 18 h); 16 µg/mL (≈ 21.3 µM) in experiment [10] (MRSA); 16 µg/mL (≈ 21.3 µM) in [11] (MRSE); 8 µg/mL (≈ 10.7 µM) in experiment [12] (MRSA); 16 µg/mL (≈ 21.3 µM) in [13] (MRSA). Also, the MIC in [14] (MRSE) and in experiment [15] (MRSE) was 16 µg/mL (≈ 21.3 µM) throughout. The GIZ was 34 mm in experiment [4]; 30 mm in experiment [5]; 29 mm in experiment [6]; 33 mm in [7]; 28 mm in experiment [8]; 34 mm in experiment [9].

By IC50 is commonly meant the concentration at which inhibition is half-maximal. Broadly, the MIC is the least concentration at which growth counts as inhibited.
